From patent US20260306463A1, “SIK INHIBITORS TO TREAT CHRONIC KIDNEY DISEASE” (The General Hospital Corporation, priority 2023, published 2026) come the findings set out here.

In test [1] the test system is human kidney organoids. The test can be described thus: RT-qPCR in cisplatin-injured human kidney organoids. In kind it is cell-based. The note with it: for proximal tubule marker genes / fibrosis/injury marker genes: panel; for fibrosis/injury marker genes: five cisplatin cycles (FIG. 12B). From the text: FIG. 8. SK-124 treatment restores gene expression changes in cisplatin-injured human kidney organoids. RNA was isolated from organoids treated as in FIG. 7 for RT-qPCR for the indicated genes. Injury markers (Pai-1, Fibronectin-1, and Co18a1) are induced by cisplatin treatment and reduced by SK-124. In contrast, the proximal tubule marker Lrp2 is reduced by cisplatin treatment and rescued by SK-124.
FIGS. 10A-10B. SK-124 treatment restores gene expression changes in cisplatin-injured human kidney organoids. RNA was isolated from organoids treated as in FIG. 9 with the indicated number of cisplatin cycles plus DMSO control (“Cis”) or SK-124 (10 μM; “Cis+SK”) for RT-qPCR. […] (B) Injury/fibrosis markers (FN-1, Co/8a1, and Pai-1) were induced by cisplatin and suppressed by SK-124.
FIGS. 12A-12B. SK-124 protects human kidney organoids from cisplatin injury in a dose-dependent manner. RNA was isolated from organoids treated as in FIG. 11 for RT-qPCR. (A) Proximal tubule marker genes are reduced by cisplatin and increased by SK-124. (B) Fibrosis/injury marker genes are induced by cisplatin and reduced by SK-124.
(§1) BJFF human induced pluripotent stem cells (hPSCs) were maintained on Geltrexcoated (Thermo Fisher Scientific) plates using StemFit Basic04 Complete (Ajinomoto Co. Inc.) as previously reported(25). The cells were passaged weekly using Accutase (STEMCELL Technologies) for dissociation and Y27632 (Tocris) for adhesion. Directed differentiation of hPSCs into kidney organoids has been published elsewhere (29). Briefly, hPSCs were differentiated into metanephric mesenchyme cells on day 8 by a three-step directed differentiation protocol. Metanephric mesenchyme was transferred into suspension culture in 96-well ultralow adhesion plates (Coming) and further differentiated into kidney organoids, as previously reported(25). Quality control measures of SIX2 immunostaining on day 8 of differentiation and CDH1, LTL, PODXL, CD146, MEIS1/2/3, and SYTOX-blue staining on day 21 were performed on all batches of kidney organoids to limit batch-to-batch heterogeneity. Kidney organoids were maintained in 200 μl of basal media consisting of Advanced RPMI (Thermo Fisher Scientific) and GlutaMAX (Thermo Fisher Scientific) in 96-well plates, as previously reported. Media changes were conducted three times weekly with removal of 90 [l and addition of 100 μl of fresh basal media.
(§2) For cisplatin induced injury, day 49 organoids were treated with 5 μM cisplatin in basal media after full media change. After 24 hours, full media exchanges were performed. This 24-hour treatment was performed twice a week, on day 52-53, day 56-57, day 59-60, and day 63-64 as well, for a total of five cisplatin treatments. Samples were obtained for RT-qPCR and immunostaining immediately following each 24-hour treatment with cisplatin, and from corresponding controls.
cDNA was prepared using Primescript RT kit (Takara Inc), with 750 ng RNA per reaction. RT-qPCR was performed by using PerfeCa® SYBR® Green FAstMix® ROX (Quanta bio) in the StepOnePlus™ Real-time PCR System (Applied Biosystems). Hmbs was used as a control housekeeping gene for mouse samples, and B-Actin was used for organoids, relative expression was calculated (2^-deltaCT method) and compared to the mean of control group if necessary. Primers used for RT-qPCR are listed in Table 2 (mouse primers) and Table 3 (human primers).
(Real-time PCR tracks product formation cycle by cycle.)

Test [2] concerns human kidney organoids. Put plainly: cisplatin injury of human kidney organoids: immunostaining, organoid size. In kind it is cell-based. The note with it: intermittent cisplatin, 5 treatments; for proximal tubule cells: confocal microscopy. How it is done: FIG. 7. SK-124 preserves human kidney organoid integrity in cisplatin injury model. Human kidney organoids derived from H9 embryonic stem cells were treated with intermittent cisplatin (5 separate treatments) based on published protocols along with the indicated agent. Organoids were cryo-sectioned and immuno-stained with the indicated markers. The top panels show low power images and the bottom panels focus on regions of proximal tubule cells. The graph measures the mean diameter of organoids in the control (no cisplatin), cisplatin+DMSO, and cisplatin+SK-124 treatment groups.
as §1, §2
Following the treatment, the organoids were collected and immediately fixed in 4% PFA in PBS for 1 hour at room temperature, submerged in 30% sucrose overnight at 4° C., then embedded in O.C.T. Compound (4585. Fisher HealthCare). Subsequently, […] frozen sections were prepared via cryo-sectioning by a cryostat. After 1 hr blocking at room temperature, the sections were treated overnight at 4° C. with primary antibodies in antibody dilution buffer (ADB) with biotinylated LTL (1:200, B-1325, Vector), rat anti-CDH1 (1:500, ab11512, Abcam), goat anti-PODXL (1:500, AF1658, R&D Systems), as well as the antibody of interest, either mouse anti-p21 (1:200, NBP2-43697, Novus Biologicals), or rabbit anti-γH2AX (1:100, 2577, Cell Signaling) antibodies. For the optimum labeling of LTL by biotin/streptavidin interaction, the Streptavidin/Biotin Blocking Kit (SP-2002, Vector Laboratories) was applied according to the manufacturer's instructions. After washing, the samples were stained for 1 hour at RT with the nuclear dye-SYTOX Blue (1:500. S 11348, Invitrogen) and the corresponding secondary antibodies in ADB such as streptavidin-AF750 (1:500, S21384, Invitrogen), donkey anti-rat IgG-AF594 (1:500, A21209, Invitrogen), donkey anti-goat IgG-AF555 (1:500, A21432, Invitrogen), and donkey anti-rabbit IgG-AF488 (1:500, A21206, Invitrogen) for γH2AX or donkey anti-mouse IgG-AF488 (1:500, A21202, Invitrogen) for p21 antibodies as well as mouse anti-Meisl/⅔ (1:200, sc-101850, SantaCruz) conjugated antibody, and slides were mounted with Vectashield antifade mounting medium (H1000, Vector Laboratories). […]

The mark [3] stands for this setting: 5 cisplatin treatments (FIG. 8).
The mark [4] stands for this setting: 5 cisplatin treatments (FIG. 8), Co18a1 [sic].
[5] abbreviates: dose response, five cisplatin cycles (FIG. 12).
Where [6] appears, read: dose response, five cisplatin cycles (FIG. 12A).
Setting [7] is: time course, indicated number of cisplatin cycles, SK-124 10 μM (FIG. 10A).
Setting [8] is: time course, indicated number of cisplatin cycles, SK-124 10 μM (FIG. 10B).

“Also recorded” adds a separate entry of the source.

As to `CCc1nnc(-c2c(OC)cc(-c3cnc4cc(-c5cnn(C)c5)ccn34)cc2OC)o1` [SK-124, 2-[2,6-Dimethoxy-4-[7-(1-methylpyrazol-4-yl)imidazo[1,2-a]pyridin-3-yl]phenyl]-5-ethyl-1,3,4-oxadiazole], in the test with human kidney organoids [1] (setting [3]), the Fibronectin-1 expression entry is listed as “reduced; also recorded: blocked”, the Lrp2 expression result is “rescued; also recorded: preserved expression” and the Pai-1 expression entry is listed as “reduced; also recorded: blocked”. The Col8a1 expression entry with human kidney organoids [1] (setting [4]) was “reduced; also recorded: blocked”. For the same compound, the “doses at which therapeutic effects are noted in the injury model” value in the test on human kidney organoids [1] (dose response, cisplatin-injured organoids) is “below 1 μM”. Further, in the test with human kidney organoids [1] (setting [5]), the Col8al expression entry is listed as “suppressed”, the Fibronectin-1 expression result was “suppressed” and the Pai-1 expression entry was “suppressed”. Besides, in the test on human kidney organoids [1] (setting [6]), the Lrp2 expression result is on record as “dose-dependent restoration”, the Pth1r expression entry is given as “dose-dependent restoration” and the “proximal tubule marker genes” value is given as “increased”. In addition, the fibrosis/injury marker genes entry in the test on human kidney organoids [1] (dose response) is recorded as “reduced”. In the test on human kidney organoids [1] (setting [7]), the Lrp2 expression result is listed as “restored; also recorded: improved expression” and the Slc17a2 expression entry is on record as “restored; also recorded: improved expression”. Also, in the test with human kidney organoids [1] (setting [8]), the Col8a1 expression result is “suppressed expression”, the “Fibronectin-1 (FN-1) expression” value is “suppressed expression” and the Pai-1 expression entry is “suppressed expression”. Also, in the test with human kidney organoids [2], the cisplatin-induced organoid atrophy entry is “reduced cisplatin-induced organoid atrophy”; the “organoid cellularity and size in response to cisplatin injury” value was “preserves organoid cellularity and size”; the proximal tubule cells result is recorded as “preserved proximal tubule cells”.
Regarding `N.N.[Cl][Pt][Cl]` [cisplatin, reference compound], in the test on human kidney organoids [1] (setting [3]), the Fibronectin-1 expression result is recorded as “induced”, the Lrp2 expression result is listed as “reduced” and the Pai-1 expression result was “induced”. Further, the Col8a1 expression result in the test with human kidney organoids [1] (setting [4]) was “induced”. Also, in the test on human kidney organoids [1] (setting [5]), the Col8al expression result is reported as “induction”, the Fibronectin-1 expression result was “induction” and the Pai-1 expression result was “induction”. In the test on human kidney organoids [1] (setting [6]), the Lrp2 expression result is “suppression”, the Pth1r expression entry was “suppression” and the “proximal tubule marker genes” value is “reduced”. Also, in the test with human kidney organoids [1] (dose response), the fibrosis/injury marker genes result is “induced”. In the test on human kidney organoids [1] (setting [7]), the Lrp2 expression entry is “progressively reduced” and the Slc17a2 expression entry is on record as “progressively reduced”. Also, in the test on human kidney organoids [1] (setting [8]), the Col8a1 expression result is listed as “induced”, the “Fibronectin-1 (FN-1) expression” value is reported as “induced” and the Pai-1 expression result is on record as “induced”. For the same compound, the proximal tubule cells entry with human kidney organoids [2] is reported as “proximal tubular loss”.
